Test [1] in a line: Activity at CXCR4 in rat IR983F cells assessed as inhibition of CXCL12-induced cell migration.
Test [2] is described as follows: Activity at CXCR4 in human Jurkat T cells assessed as inhibition of CXCL12-induced cell migration.

Regarding `C1=C(CS/C(=N\C2CCCCC2)NC2CCCCC2)N2CCN=C2S1` [1,3-dicyclohexyl-2-((5,6-dihydroimidazo[2,1-b]thiazol-3-yl)methyl)isothiourea], the IC50 (in general, the point on the concentration scale where inhibition reaches its midpoint) worked out at 29 nM in test [1] and 58 nM in test [2].

For the origin of these results see BindingDB's records for doi:10.1021/jm801065q (Novartis Institutes For Biomedical Research, 2008).
